A short description of data set [1]: Proteolytic stability in Tris-HCl/CaCl2 buffer at pH 7.8 in presence of alpha-chymotrypsin assessed as compound degradation at 0.1 ug/uL after 6 hrs by mass spectrometry. In kind it is ADME. The conditions noted are these: pH 7.8, 6 h.
Data set [2] is described as follows: Proteolytic stability in Tris-HCl/CaCl2 buffer at pH 7.8 in presence of alpha-chymotrypsin assessed as intact parent compound at 0.1 ug/uL measured after 24 hrs by mass spectrometry. It is filed as ADME. Conditions: pH 7.8, 24 h; call rule not given here.
Data set [3] in a line: Proteolytic stability in Tris-HCl/CaCl2 buffer at pH 7.8 in presence of alpha-chymotrypsin assessed as cleavage of compound at -3Trp-4Xxx- in second arm of dimer at 0.1 ug/uL after 24 hrs by mass spectrometry. In kind it is ADME. Conditions: pH 7.8, 24 h.
Data set [4] in a line: Proteolytic stability in Tris-HCl/CaCl2 buffer at pH 7.8 in presence of alpha-chymotrypsin assessed as cleavage of compound at -3Trp-4Xxx- in second arm of dimer at 0.1 ug/uL after 4 hrs by mass spectrometry. In kind it is ADME. The conditions noted are these: pH 7.8, 4 h.
Data set [5] can be described thus: Proteolytic stability in Tris-HCl/CaCl2 buffer at pH 7.8 in presence of alpha-chymotrypsin assessed as cleavage of compound at -3Trp-4Xxx- in one arm of dimer at 0.1 ug/uL measured after 1 hr by mass spectrometry. In kind it is ADME. The conditions noted are these: pH 7.8, 1 h.
Data set [6] can be described thus: Proteolytic stability in 0.1 % formic acid at pH 1.8 in presence of pepsin after 24 hrs by mass spectrometry. In kind it is ADME. Conditions: isolated protein, pH 1.8, 24 h.
Data set [7] can be described thus: Proteolytic stability in NH4HCO3 buffer at pH 8.0 in presence of trypsin at 0.1 ug/uL after 24 hrs by mass spectrometry. It is filed as ADME. The conditions noted are these: isolated protein, pH 8, 24 h.
Data set [8] in a line: Drug metabolism in rat liver lysosomal homogenate assessed as [H-Lys(Dau=Aoa-Cys)-OH]2 formation at 0.1 ug/uL after 24 hrs by LC-MS analysis. The conditions noted are these: tissue homogenate. It is filed as ADME, tissue-based.
The nature of data set [9]: Chemical stability of the compound in aqueous solution after 24 hrs by LC-MS analysis. Conditions: buffer. It is filed as physicochemical.
For another data set, the system named is Serum. The data set can be described thus: Metabolic stability in human serum at 10 uM after 24 hrs by LC-MS analysis. In kind it is ADME, cell-free.
The next data set concerns MCF7. Kind of data set: Cytostatic activity against human MCF7 cells after 72 hrs by MTT assay. It is filed as functional, cell-based. Conditions: MCF7, 72 h. For orientation: Tetrazolium assays rely on reduction of a dye to a coloured formazan, in cell work by metabolically active cells.
Data set [10] can be described thus: Prodrug conversion in rat liver lysosomal homogenate assessed as H-Lys(Dau=Aoa-Cys)-OH formation at 0.1 ug/uL after 24 hrs by LC-MS analysis. It is filed as ADME, tissue-based.
Data set [11] can be described thus: Prodrug conversion in rat liver lysosomal homogenate assessed as free daunorubicin at 0.1 ug/uL after 24 hrs by LC-MS analysis. It is filed as ADME, tissue-based.
A short description of data set [12]: Prodrug conversion in rat liver lysosomal homogenate assessed as {[H-Lys(Dau=Aoa-Cys)-OH] [H-Lys(Dau=Aoa-Cys)P-OH]} formation at 0.1 ug/uL after 24 hrs by LC-MS analysis. It is filed as ADME, tissue-based.

Molecules are shown by their SMILES.

In the case of `COc1cccc2c1C(=O)c1c(O)c3c(c(O)c1C2=O)C[C@@](O)(/C(C)=N/OCC(=O)N[C@@H](CSSC[C@H](NC(=O)CO/N=C(\C)[C@]1(O)Cc2c(O)c4c(c(O)c2[C@@H](O[C@H]2C[C@H](N)[C@H](O)[C@H](C)O2)C1)C(=O)c1c(OC)cccc1C4=O)C(=O)NCCCC[C@H](NC(=O)[C@H](Cc1c[nH]c2ccccc12)NC(=O)[C@H](CC(=O)O)NC(=O)[C@H](Cc1cnc[nH]1)NC(=O)[C@H](CO)N(C)C(=O)[C@H](Cc1c[nH]c2ccccc12)NC(=O)[C@H](Cc1cnc[nH]1)NC(=O)[C@@H]1CCC(=O)N1)C(=O)N1CCC[C@H]1C(=O)NCC(N)=O)C(=O)NCCCC[C@H](NC(=O)[C@H](Cc1c[nH]c2ccccc12)NC(=O)[C@H](CC(=O)O)NC(=O)[C@H](Cc1cnc[nH]1)NC(=O)[C@H](CO)N(C)C(=O)[C@H](Cc1c[nH]c2ccccc12)NC(=O)[C@H](Cc1cnc[nH]1)NC(=O)[C@@H]1CCC(=O)N1)C(=O)N1CCC[C@H]1C(=O)NCC(N)=O)C[C@@H]3O[C@H]1C[C@H](N)[C@H](O)[C@H](C)O1`, the Stability result is reported as “Unstable” in data set [1]; “Stable” in data set [2]; “Stable” in data set [3]; “Stable” in data set [4]; “Unstable” in [5]; “Stable” in [6]. Also, the Stability result (in [7]; in data set [9]; in the data set on Serum) was “Stable” in each case. In addition, the Drug metabolism entry in [8] is reported as “Active”. Moreover, inhibition with MCF7 was half-maximal at 6.2 µM (IC50).

As for `COc1cccc2c1C(=O)c1c(O)c3c(c(O)c1C2=O)C[C@@](O)(/C(C)=N/OCC(=O)NCCCC[C@H](NC(=O)[C@H](Cc1c[nH]c2ccccc12)NC(=O)[C@H](CC(=O)O)NC(=O)[C@H](Cc1cnc[nH]1)NC(=O)[C@H](CO)N(C)C(=O)[C@H](Cc1c[nH]c2ccccc12)NC(=O)[C@H](Cc1cnc[nH]1)NC(=O)[C@@H]1CCC(=O)N1)C(=O)N1CCC[C@H]1C(=O)NCC(N)=O)C[C@@H]3O[C@H]1C[C@H](N)[C@H](O)[C@H](C)O1`, the Drug metabolism result in [10] is listed as “Active”. In the data set on MCF7, this compound returned an IC50 of 10.6 µM.

As for `COc1cccc2c1C(=O)c1c(O)c3c(c(O)c1C2=O)C[C@@](O)(/C(C)=N/OCC(=O)N[C@@H](CSSC[C@H](NC(=O)CO/N=C(\C)[C@]1(O)Cc2c(O)c4c(c(O)c2[C@@H](O[C@H]2C[C@H](N)[C@H](O)[C@H](C)O2)C1)C(=O)c1c(OC)cccc1C4=O)C(=O)NCCCC[C@H](NC(=O)[C@H](Cc1c[nH]c2ccccc12)NC(=O)[C@H](CC(=O)O)NC(=O)[C@H](Cc1cnc[nH]1)NC(=O)[C@H](CO)NC(=O)[C@H](Cc1c[nH]c2ccccc12)NC(=O)[C@H](Cc1cnc[nH]1)NC(=O)[C@@H]1CCC(=O)N1)C(=O)N1CCC[C@H]1C(=O)NCC(N)=O)C(=O)NCCCC[C@H](NC(=O)[C@H](Cc1c[nH]c2ccccc12)NC(=O)[C@H](CC(=O)O)NC(=O)[C@H](Cc1cnc[nH]1)NC(=O)[C@H](CO)NC(=O)[C@H](Cc1c[nH]c2ccccc12)NC(=O)[C@H](Cc1cnc[nH]1)NC(=O)[C@@H]1CCC(=O)N1)C(=O)N1CCC[C@H]1C(=O)NCC(N)=O)C[C@@H]3O[C@H]1C[C@H](N)[C@H](O)[C@H](C)O1`, the Stability result is given as “Unstable” in data set [1]; “Stable” in [2]; “Stable” in data set [3]; “Stable” in [4]; “Unstable” in data set [5]; “Stable” in data set [6]. Also, the Stability result (in data set [7]; in data set [9]; in the data set with Serum) was “Stable” in each case. For the same compound, the Drug metabolism entry in [11] is on record as “Not Active”; in data set [12], “Active”. Also, half-maximal inhibition in the data set with MCF7 (IC50) was put at 4.1 µM.

As usually defined, the IC50 is the concentration needed to halve the response being measured. The low end stands for greater potency, the high end for weaker potency.

The values above are taken from ChEMBL document CHEMBL2390896, “Synthesis, enzymatic stability and in vitro cytostatic effect of Daunorubicin-GnRH-III derivative dimers” (Bioorg Med Chem Lett, 2013).
